Assays:
M-HeLa = assay: Anticancer activity against human HelaM cells assessed as cell growth inhibition measured after 24 hrs by DAPI and propidium iodide staining based assay; assay type: functional
[1] = Cytotoxicity against human Chang liver cells assessed as cell growth inhibition measured after 24 hrs by DAPI and propidium iodide staining based assay; assay type: toxicity
FaDu = assay: Anticancer activity against human FaDu cells assessed as cell growth inhibition; assay type: functional, cell-based
HCT-116 = assay: Anticancer activity against human HCT-116 cells assessed as cell growth inhibition measured after 48 hrs by MTT assay; assay type: functional, cell-based; conditions: HCT-116, 48 h
MCF7 = assay: Anticancer activity against human MCF7 cells assessed as cell growth inhibition measured after 48 hrs by MTT assay; assay type: functional, cell-based; conditions: MCF7, 48 h

SMILES	IC50 (FaDu) [µM]	also measured
Oc1ccc2c(c1)OCO2	–	IC50 (M-HeLa): 14.7 µM; IC50 at 24 h [1]: > 100 µM
COc1ccc(-c2c(O)c3ccccc3oc2=O)cc1	–	IC50 (M-HeLa): ≥ 14.7 µM; IC50 at 24 h [1]: > 100 µM
CCCCCCc1c(O)c2ccccc2oc1=O	–	IC50 (M-HeLa): ≥ 14.7 µM; IC50 at 24 h [1]: > 100 µM
CCCCCCc1c(O)cc(C)oc1=O	–	IC50 (M-HeLa): ≥ 14.7 µM; IC50 at 24 h [1]: > 100 µM
O=C1Nc2ccccc2[C@@]12N[C@H](Cc1c[nH]c3ccccc13)[C@@H]([N+](=O)[O-])[C@@H]2c1ccccc1	30	–
O=C1Nc2ccc(OC(F)(F)F)cc2[C@@]12N[C@H](Cc1c[nH]c3ccccc13)[C@@H]([N+](=O)[O-])[C@@H]2c1ccccc1	≥ 30	–
O=C1Nc2ccccc2[C@@]12N[C@H](Cc1c[nH]c3ccccc13)[C@@H]([N+](=O)[O-])[C@@H]2c1ccc(Br)cc1	39.7	–
O=C1Nc2ccccc2[C@@]12N[C@H](Cc1c[nH]cn1)[C@@H]([N+](=O)[O-])[C@@H]2c1cccc([N+](=O)[O-])c1	≥ 30	–
O=C1Nc2ccc(OC(F)(F)F)cc2[C@@]12N[C@H](Cc1c[nH]cn1)[C@@H]([N+](=O)[O-])[C@@H]2c1ccc(Cl)cc1	≥ 30	–
Cc1ccc([C@H]2[C@H]([N+](=O)[O-])[C@@H](Cc3c[nH]cn3)N[C@]23C(=O)Nc2ccc(OC(F)(F)F)cc23)cc1	≥ 30	–
Cc1ccc([C@H]2[C@H]([N+](=O)[O-])[C@@H](Cc3c[nH]cn3)N[C@]23C(=O)Nc2ccccc23)cc1	≥ 30	–
O=C1Nc2ccc(OC(F)(F)F)cc2[C@@]12N[C@H](Cc1c[nH]cn1)[C@@H]([N+](=O)[O-])[C@@H]2c1ccc(Br)cc1	≥ 30	–
Cc1ccc([C@H]2[C@H]([N+](=O)[O-])[C@@H](Cc3c[nH]c4ccccc34)N[C@]23C(=O)Nc2ccccc23)cc1	≥ 30	–
O=C1Nc2ccccc2[C@@]12N[C@H](Cc1c[nH]c3ccccc13)[C@@H]([N+](=O)[O-])[C@@H]2c1ccccc1Cl	≥ 30	–
O=C1Nc2ccc(OC(F)(F)F)cc2[C@@]12N[C@H](Cc1c[nH]cn1)[C@@H]([N+](=O)[O-])[C@@H]2c1cccc([N+](=O)[O-])c1	≥ 30	–
O=C1Nc2ccccc2[C@@]12N[C@H](Cc1c[nH]cn1)[C@@H]([N+](=O)[O-])[C@@H]2c1ccc(Br)cc1	40.1	–
COc1ccc([C@H]2[C@H]([N+](=O)[O-])[C@@H](Cc3c[nH]cn3)N[C@]23C(=O)Nc2ccccc23)cc1	≥ 30	–

SMILES	IC50 (FaDu) [µM]	also measured
COc1ccc([C@H]2[C@H]([N+](=O)[O-])[C@@H](Cc3c[nH]cn3)N[C@]23C(=O)Nc2ccc(OC(F)(F)F)cc23)cc1	≥ 30	–
COc1ccc([C@H]2[C@H]([N+](=O)[O-])[C@@H](Cc3c[nH]c4ccccc34)N[C@]23C(=O)Nc2ccccc23)cc1	≥ 30	–
O=C1Nc2ccccc2[C@@]12N[C@H](Cc1c[nH]c3ccccc13)[C@@H]([N+](=O)[O-])[C@@H]2c1cccc([N+](=O)[O-])c1	≥ 30	–
O=C1Nc2ccc(OC(F)(F)F)cc2[C@@]12N[C@H](Cc1c[nH]cn1)[C@@H]([N+](=O)[O-])[C@@H]2c1ccccc1	≥ 30	–
O=C1Nc2ccccc2[C@@]12N[C@H](Cc1c[nH]cn1)[C@@H]([N+](=O)[O-])[C@@H]2c1ccccc1Cl	≥ 30	–
Cc1ccc([C@H]2[C@H]([N+](=O)[O-])[C@@H](Cc3c[nH]c4ccccc34)N[C@]23C(=O)Nc2ccc(OC(F)(F)F)cc23)cc1	≥ 30	–
O=C1Nc2ccc(OC(F)(F)F)cc2[C@@]12N[C@H](Cc1c[nH]cn1)[C@@H]([N+](=O)[O-])[C@@H]2c1ccccc1Cl	≥ 30	–
O=C1Nc2ccccc2[C@@]12N[C@H](Cc1c[nH]c3ccccc13)[C@@H]([N+](=O)[O-])[C@@H]2c1ccc(Cl)cc1	≥ 30	–
COc1ccc([C@H]2[C@H]([N+](=O)[O-])[C@@H](Cc3c[nH]c4ccccc34)N[C@]23C(=O)Nc2ccc(OC(F)(F)F)cc23)cc1	≥ 30	–
O=C1Nc2ccccc2[C@@]12N[C@H](Cc1c[nH]cn1)[C@@H]([N+](=O)[O-])[C@@H]2c1ccc(Cl)cc1	≥ 30	–
O=C1Nc2ccccc2[C@@]12N[C@H](Cc1c[nH]cn1)[C@@H]([N+](=O)[O-])[C@@H]2c1ccccc1	43	–
O=C1Nc2ccc(OC(F)(F)F)cc2[C@@]12N[C@H](Cc1c[nH]c3ccccc13)[C@@H]([N+](=O)[O-])[C@@H]2c1cccc([N+](=O)[O-])c1	≥ 30	–
O=C1Nc2ccc(OC(F)(F)F)cc2[C@@]12N[C@H](Cc1c[nH]c3ccccc13)[C@@H]([N+](=O)[O-])[C@@H]2c1ccccc1Cl	≥ 30	–
O=C1Nc2ccc(OC(F)(F)F)cc2[C@@]12N[C@H](Cc1c[nH]c3ccccc13)[C@@H]([N+](=O)[O-])[C@@H]2c1ccc(Br)cc1	≥ 30	–
O=[N+]([O-])c1c(Cl)cc2c(no[n+]2[O-])c1Nc1ccc(-c2ccc(Br)cc2)c(O)c1	–	IC50 (M-HeLa): ≥ 14.7 µM; IC50 at 24 h [1]: > 100 µM
O=C(/C=C/c1ccc(Br)cc1)[C@H]1[C@H](c2ccc(Br)cc2)C2CSCN2C12C(=O)Nc1c(Br)cc(Br)cc12 (stereo partly specified)	–	IC50 (HCT-116): 2.2 µM; IC50 (MCF7): 2.5 µM
Oc1cc2c(cc1-c1ccccc1)OCO2	–	IC50 (M-HeLa): 14.7 µM; IC50 at 24 h [1]: > 100 µM
